Results taken from patent publication US9029325B2, “Amylin analogues and pharmaceutical compositions thereof” (Novo Nordisk A/S, priority 2011, dated 2015).
Starred links: 1 amine or outer side, 2 acyl side, 3 side chain; linkers in the order of their positions; H or OH if unused. Positions of bridges follow the written chain, without caps; N, C: chain ends. Residues, ends and D or L forms follow the SMILES beside them. *: point of attachment. C20 diacid = O=C(O)CCCCCCCCCCCCCCCCCCC(=O)*; γGlu = O=C(O)[C@H](CCC(=O)[*:2])N[*:1]

What was measured:
[1] = Assay (I) efficacy testing on appetite (food intake), ad libitum fed rat model; type: in vivo, Sprague Dawley (SD) rats; conditions: 3 nmol/kg
Procedure, shortened: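 Single ip, po or sc dosing (0.01-3 mg/kg, by body weight) at the start of the dark phase, in individually housed Sprague Dawley rats of 200-250 g with free food and water. Intake was logged per rat each hour to 7 h, then at 24 h (occasionally 48 h), against a vehicle group; outliers removed by Grubbs test.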

[2] = Assay (III) ThT fibrillation assay for physical stability; type: physicochemical; conditions: for Th T pH 4.0 lag time (h): 37° C., orbital shaking 960 rpm; for ThT pH 4.0 lag time: Table 9
Procedure, shortened: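 Freshly prepared samples, pH adjusted with NaOH and HClO4 or HCl, received ThT at 1 μM final and were incubated at 37° C with orbital shaking at 960 rpm. Fluorescence (ex 444 nm, em 485 nm) was read every 20 minutes; […], with polypeptide concentration by reverse HPLC before and after.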

SMILES	Th T pH 4.0 lag time (h) [2]	ThT pH 4.0 lag time [2]	Food intake reduction 0-24 h 3 nmol/kg (%) [1]	Food intake reduction 24-48 h 3 nmol/kg (%) [1]
CC[C@H](C)[C@H](NC(=O)[C@@H]1CCCN1C(=O)CNC(=O)[C@H](Cc1ccccc1)NC(=O)[C@H](CC(N)=O)NC(=O)[C@H](CC(N)=O)NC(=O)[C@H](CO)NC(=O)[C@H](CO)NC(=O)[C@H](Cc1c[nH]cn1)NC(=O)[C@H](CCCNC(=N)N)NC(=O)[C@H](CC(C)C)NC(=O)[C@H](Cc1ccccc1)NC(=O)[C@H](CCC(=O)O)NC(=O)[C@H](C)NC(=O)[C@H](CC(C)C)NC(=O)[C@H](CCCNC(=N)N)NC(=O)[C@H](CCC(N)=O)NC(=O)[C@@H](NC(=O)[C@H](C)NC(=O)[C@@H]1CSSC[C@H](NC(=O)[C@H](CCCCN)NC(=O)CC[C@H](NC(=O)CCCCCCCCCCCCCCCCCCC(=O)O)C(=O)O)C(=O)N[C@@H](CC(N)=O)C(=O)N[C@@H]([C@@H](C)O)C(=O)N[C@@H](C)C(=O)N[C@@H]([C@@H](C)O)C(=O)N1)[C@@H](C)O)C(=O)N[C@@H](CC(C)C)C(=O)N1CCC[C@H]1C(=O)N1CCC[C@H]1C(=O)N[C@H](C(=O)N[C@@H](CC(N)=O)C(=O)N[C@H](C(=O)NCC(=O)N[C@@H](CO)C(=O)N[C@@H](CC(N)=O)C(=O)N[C@H](C(=O)N1CCC[C@H]1C(N)=O)[C@@H](C)O)C(C)C)[C@@H](C)O [Example 53, N-alpha-[(S)-4-Carboxy-4-(19-carboxynonadecanoylamino)butyryl]-[Glu14, Arg17, Pro37]-pramlintide]	>45 h	>45 hr	40%	28%
CC[C@H](C)[C@H](NC(=O)[C@@H]1CCCN1C(=O)CNC(=O)[C@H](Cc1ccccc1)NC(=O)[C@H](CC(N)=O)NC(=O)[C@H](CC(N)=O)NC(=O)[C@H](CO)NC(=O)[C@H](CO)NC(=O)[C@H](Cc1c[nH]cn1)NC(=O)[C@H](Cc1c[nH]cn1)NC(=O)[C@H](CC(C)C)NC(=O)[C@H](Cc1ccccc1)NC(=O)[C@H](CCC(=O)O)NC(=O)[C@H](C)NC(=O)[C@H](CC(C)C)NC(=O)[C@H](CCCNC(=N)N)NC(=O)[C@H](CCC(N)=O)NC(=O)[C@@H](NC(=O)[C@H](C)NC(=O)[C@@H]1CSSC[C@H](NC(=O)[C@H](CCCCN)NC(=O)CC[C@H](NC(=O)CCCCCCCCCCCCCCCCCCC(=O)O)C(=O)O)C(=O)N[C@@H](CC(N)=O)C(=O)N[C@@H]([C@@H](C)O)C(=O)N[C@@H](C)C(=O)N[C@@H]([C@@H](C)O)C(=O)N1)[C@@H](C)O)C(=O)N[C@@H](CC(C)C)C(=O)N1CCC[C@H]1C(=O)N1CCC[C@H]1C(=O)N[C@H](C(=O)N[C@@H](CC(N)=O)C(=O)N[C@H](C(=O)NCC(=O)N[C@@H](CO)C(=O)N[C@@H](CC(N)=O)C(=O)N[C@H](C(=O)N1CCC[C@H]1C(N)=O)[C@@H](C)O)C(C)C)[C@@H](C)O [Example 52, N-alpha-[(S)-4-Carboxy-4-(19-carboxynonadecanoylamino)butyryl]-[Glu14, His17, Pro37]-pramlintide] ({C20 diacid-γGlu}-KCNTATCATQRLAEFLHHSSNNFGPILPPTNVGSNTP-NH2; disulfide 2-7)	>45 h	>45 hr	62%	74%

The next lines start with results.

Th T pH 4.0 lag time (h) [2]	ThT pH 4.0 lag time [2]	SMILES	Food intake reduction 0-24 h 3 nmol/kg (%) [1]	Food intake reduction 24-48 h 3 nmol/kg (%) [1]
>45 h	>45 hr	CC[C@H](C)[C@H](NC(=O)[C@@H]1CCCN1C(=O)CNC(=O)[C@H](Cc1ccccc1)NC(=O)[C@H](CC(N)=O)NC(=O)[C@H](CC(N)=O)NC(=O)[C@H](CO)NC(=O)[C@H](CO)NC(=O)[C@H](Cc1c[nH]cn1)NC(=O)[C@H](Cc1c[nH]cn1)NC(=O)[C@H](CC(C)C)NC(=O)[C@H](Cc1ccccc1)NC(=O)[C@H](CCC(=O)O)NC(=O)[C@H](C)NC(=O)[C@H](CC(C)C)NC(=O)[C@H](CCCNC(=N)N)NC(=O)[C@H](CCC(N)=O)NC(=O)[C@@H](NC(=O)[C@H](C)NC(=O)[C@@H]1CSSC[C@H](NC(=O)[C@H](CCCNC(=N)N)NC(=O)CNC(=O)CC[C@H](NC(=O)CCCCCCCCCCCCCCCCCCC(=O)O)C(=O)O)C(=O)N[C@@H](CC(N)=O)C(=O)N[C@@H]([C@@H](C)O)C(=O)N[C@@H](C)C(=O)N[C@@H]([C@@H](C)O)C(=O)N1)[C@@H](C)O)C(=O)N[C@@H](CC(C)C)C(=O)N1CCC[C@H]1C(=O)N1CCC[C@H]1C(=O)N[C@H](C(=O)N[C@@H](CC(N)=O)C(=O)N[C@H](C(=O)NCC(=O)N[C@@H](CO)C(=O)N[C@@H](CC(N)=O)C(=O)N[C@H](C(=O)N1CCC[C@H]1C(N)=O)[C@@H](C)O)C(C)C)[C@@H](C)O [Example 101, N-alpha-[(S)-4-Carboxy-4-(19-carboxynonadecanoylamino)butyryl]-Gly-[Arg1, Glu14, His17, Pro37]-pramlintide] ({C20 diacid-γGlu}-GRCNTATCATQRLAEFLHHSSNNFGPILPPTNVGSNTP-NH2; disulfide 3-8 (inferred); C-terminus assumed)	70%	90%
>45 h	>45 hr	CC[C@H](C)[C@H](NC(=O)[C@@H]1CCCN1C(=O)CNC(=O)[C@H](Cc1ccccc1)NC(=O)[C@H](CC(N)=O)NC(=O)[C@H](CC(N)=O)NC(=O)[C@H](CO)NC(=O)[C@H](CO)NC(=O)[C@H](Cc1c[nH]cn1)NC(=O)[C@H](CCCNC(=N)N)NC(=O)[C@H](CC(C)C)NC(=O)[C@H](Cc1ccccc1)NC(=O)[C@H](CCC(=O)O)NC(=O)[C@H](C)NC(=O)[C@H](CC(C)C)NC(=O)[C@H](CCCNC(=N)N)NC(=O)[C@H](CCC(N)=O)NC(=O)[C@@H](NC(=O)[C@H](C)NC(=O)[C@@H]1CSSC[C@H](NC(=O)[C@H](Cc2c[nH]cn2)NC(=O)CNC(=O)CC[C@H](NC(=O)CCCCCCCCCCCCCCCCCCC(=O)O)C(=O)O)C(=O)N[C@@H](CC(N)=O)C(=O)N[C@@H]([C@@H](C)O)C(=O)N[C@@H](C)C(=O)N[C@@H]([C@@H](C)O)C(=O)N1)[C@@H](C)O)C(=O)N[C@@H](CC(C)C)C(=O)N1CCC[C@H]1C(=O)N1CCC[C@H]1C(=O)N[C@H](C(=O)N[C@@H](CC(N)=O)C(=O)N[C@H](C(=O)NCC(=O)N[C@@H](CO)C(=O)N[C@@H](CC(N)=O)C(=O)N[C@H](C(=O)N1CCC[C@H]1C(N)=O)[C@@H](C)O)C(C)C)[C@@H](C)O [Example 89, N-alpha-[(S)-4-Carboxy-4-(19-carboxynonadecanoylamino)butyryl]-Gly-[His1, Glu14, Arg17, Pro37]-pramlintide] ({C20 diacid-γGlu}-GHCNTATCATQRLAEFLRHSSNNFGPILPPTNVGSNTP-NH2; disulfide 3-8)	42%	23%
>45 h	>45 hr	CC[C@H](C)[C@H](NC(=O)[C@@H]1CCCN1C(=O)CNC(=O)[C@H](Cc1ccccc1)NC(=O)[C@H](CC(N)=O)NC(=O)[C@H](CC(N)=O)NC(=O)[C@H](CO)NC(=O)[C@H](CO)NC(=O)[C@H](Cc1c[nH]cn1)NC(=O)[C@H](CCCNC(=N)N)NC(=O)[C@H](CC(C)C)NC(=O)[C@H](Cc1ccccc1)NC(=O)[C@H](CCC(=O)O)NC(=O)[C@H](C)NC(=O)[C@H](CC(C)C)NC(=O)[C@H](CCCNC(=N)N)NC(=O)[C@H](CCC(N)=O)NC(=O)[C@@H](NC(=O)[C@H](C)NC(=O)[C@@H]1CSSC[C@H](NC(=O)[C@H](CCC(=O)O)NC(=O)[C@H](CCCNC(=N)N)NC(=O)[C@H](CCC(=O)O)NC(=O)CC[C@H](NC(=O)CCCCCCCCCCCCCCCCCCC(=O)O)C(=O)O)C(=O)N[C@@H](CC(N)=O)C(=O)N[C@@H]([C@@H](C)O)C(=O)N[C@@H](C)C(=O)N[C@@H]([C@@H](C)O)C(=O)N1)[C@@H](C)O)C(=O)N[C@@H](CC(C)C)C(=O)N1CCC[C@H]1C(=O)N1CCC[C@H]1C(=O)N[C@H](C(=O)N[C@@H](CC(N)=O)C(=O)N[C@H](C(=O)NCC(=O)N[C@@H](CO)C(=O)N[C@@H](CC(N)=O)C(=O)N[C@H](C(=O)N1CCC[C@H]1C(N)=O)[C@@H](C)O)C(C)C)[C@@H](C)O [Example 124, N-alpha-[(S)-4-Carboxy-4-(19-carboxynonadecanoylamino)butyryl]-Glu-Arg-[Glu1, Glu14, Arg17, Pro37]-pramlintide] ({C20 diacid-γGlu}-ERECNTATCATQRLAEFLRHSSNNFGPILPPTNVGSNTP-NH2; disulfide 4-9)	–	–
>45 h	>45 hr	CC[C@H](C)[C@H](NC(=O)[C@@H]1CCCN1C(=O)CNC(=O)[C@H](Cc1ccccc1)NC(=O)[C@H](CC(N)=O)NC(=O)[C@H](CC(N)=O)NC(=O)[C@H](CO)NC(=O)[C@H](CO)NC(=O)[C@H](Cc1c[nH]cn1)NC(=O)[C@H](Cc1c[nH]cn1)NC(=O)[C@H](CC(C)C)NC(=O)[C@H](Cc1ccccc1)NC(=O)[C@H](CCC(=O)O)NC(=O)[C@H](C)NC(=O)[C@H](CC(C)C)NC(=O)[C@H](CCCNC(=N)N)NC(=O)[C@H](CCC(N)=O)NC(=O)[C@@H](NC(=O)[C@H](C)NC(=O)[C@@H]1CSSC[C@H](NC(=O)[C@H](CCCCN)NC(=O)CC[C@H](NC(=O)CCCCCCCCCCCCCCCCCCC(=O)O)C(=O)O)C(=O)N[C@@H](CC(N)=O)C(=O)N[C@@H]([C@@H](C)O)C(=O)N[C@@H](C)C(=O)N[C@@H]([C@@H](C)O)C(=O)N1)[C@@H](C)O)C(=O)N[C@@H](CC(C)C)C(=O)N1CCC[C@H]1C(=O)N1CCC[C@H]1C(=O)N[C@H](C(=O)N[C@@H](CC(N)=O)C(=O)N[C@H](C(=O)NCC(=O)N[C@@H](CO)C(=O)N[C@@H](CCC(N)=O)C(=O)N[C@H](C(=O)N1CCC[C@H]1C(N)=O)[C@@H](C)O)C(C)C)[C@@H](C)O [Example 135, N-alpha-[(S)-4-Carboxy-4-(19-carboxynonadecanoylamino)butyryl]-[Glu14, His17, Gln35, Pro37]-pramlintide] ({C20 diacid-γGlu}-KCNTATCATQRLAEFLHHSSNNFGPILPPTNVGSQTP-NH2; disulfide 2-7)	–	–
